The test system of test [1] is Human embryonic stem cells H9p33. The experiment in a line: Cell releasing enzyme panel: passage of hES cell clusters as single cells, recovered cells counted with trypan blue. In kind it is cell-based. The following applies: for CELL NUMBER: recovered cells/well after three days on MATRIGEL, reseeded at 200,000 cells/well (collagenase: clusters, 30 minute incubation, 1:5 dilution). On the procedure: Human embryonic stem cells H9p33 cells grown in clusters in a 6 well dish were incubated with the following enzymes; TrypLE™ Express (stable tryspin-like enzyme (Invitrogen (Carlsbad, Calif.)), TrypLE™ Select (animal origin-free trypsin-like enzyme Invitrogen (Carlsbad, Calif.)), trypsin/EDTA (0.05%), or trypsin (0.25%), for two minutes at 36° C. All enzymes released the cells within two minutes except trypsin. Release with trypsin was achieved after five minutes at 36° C. Cells were reseeded at 200,000 cells/well into a 6 well plate coated with MATRIGEL™ and allowed to expand for three days. Human embryonic stem cells were also passed as clusters with collagenase (30 minute incubation) and reseeded at a 1:5 dilution on MATRIGEL™-coated wells, similar to the counted TrypLE™ Express cells. After three days, the hESC were released by a five minute incubation with TrypLE™ Express. Cells were incubated with 0.01% trypan blue and then counted (Table 1). Cell viability immediately after release was greater than 98% for all enzymes tested. Passage of human embryonic stem cells with collagenase is the standard passaging method. […] TrypLE™ Select and TrypLE™ Express were the best enzymes evaluated and were further tested in a time course experiment, Example 3.

In another test the test system is H1 passage 37 hES cells. The experiment in a line: Passage of hES cells directly from MEF feeders to MATRIGEL with enzymes. The test is classed as cell-based, human. As for the experimental part: In an effort to move to a feeder free culture of hES cells from a feeder based culture, H1 passage 37 hES cells that had been supported by a MEF feeder layer in hESC media and grown for 5 days on 10 cm^2 wells of 6 well plates were passaged. The cells were passaged with either TrypLE™, Accutase™, or 1 mg/ml of collagenase.
Before adding enzyme to the cells, the spent media was aspirated, 1 ml PBS (no Ca^2+, or Mg^2+) was added to each well, was aspirated again, and then 1 ml of room temperature enzyme (collagenase, Accutase™, or TrypLE™) was added. Accutase™ or TrypLE™ were used at stock concentration after reaching room temperature. Collagenase was removed from −80° C. freezer, thawed, mixed with 9 ml DMEM/F12, sterile filtered, and allowed to reach room temperature before use.
The cells were incubated in enzyme at 37° C. for 10 min. […] One ml of 2% Probumin in DMEM-F12 was added to each well and the combined total volume in the well was transferred to a 50 ml sterile conical tube, making sure to lift and suspend as many cells as possible.
The cells were centrifuged for 5 minutes at 200×g followed by an additional wash with 2% Probumin and centrifugation for 5 minutes at 200×g. Cell were then resuspended in MEF conditioned media and plated at a 1 to 3.5 ratio onto MATRIGEL™ (1:30 dilution in DMEM) coated T25 flasks, and placed in a 37° C., 5% CO2, humidified incubator.
Cell number was calculated by counting with an Improved Neubauer hemocytomer. […] Given a 1 to 3.5 split ratio, we plated the Accutase treated cells at a seeding density of 2.72 million cells/T25flask or 108,000 cells/cm^2, the TrypLE™ treated cells at a seeding density 2.65 million cells/T25flask or 105,000 cells/cm^2. It is assume that Collagenase treated wells were seeded at a similar density (105,000 to 108,000 cells/cm^2), since there was no appreciable difference in hES density from well to well before enzyme treatment. An additional flask was plated with Collagenase lifted cells for counting purposes at the next passage.
Cells were maintained for 4 days with daily changes of MEF conditioned media supplemented with […] of bFGF. After 4 days in culture the cultures were confluent, and the single cell treated hES cells formed monolayers of hES cells with occasional pockets of fibroblasts, while the cluster passaged hES cells formed large colony style clusters of hES cells (FIG. 13). These cells were then passaged again.
As previously described, the cells were incubated in enzyme at 37° C. for 10 min. […] The additional collagenase flask was lifted with Accutase™. The single cells were then with an Improved Neubauer hemocytometer.
Two ml of 2% Probumin in DMEM-F12 was then added to each flask after enzyme incubation, the total volume (˜4 ml) from the flask was pipetted up and down 5-10 times in order to suspend as many cells as possible. The suspension was then transferred to a 50 ml conical tube and centrifuged for 5 min at 200×g. Cells were then resuspended in MEF conditioned media supplemented with […] of bFGF, and then plated to T25 flasks precoated with 1:30 MATRIGEL™ at a ratio of 1:4.
Given that the cells were passaged at a 1:4 ratio, the cells were plated at a density of 58,000 cell/cm^2 for Accutase™ passage, 51,000 cell/cm^2 for TrypLE™ passage, and 35,000 cell/cm^2.
Cells were then grown for an additional 6 days, with daily media change of MEF conditioned media supplemented with 16 ng/ml of bFGF.

A further test relates to hES H9scp18. The experiment in a line: Definitive endoderm differentiation of hES single cells in 96 well plates, IN Cell 1000 cell number and Sox17 staining. In kind it is cell-based, human. The following applies: 10 ng/ml Wnt3a, with 100 ng/ml Activin A, 0.5% FBS, two days; 40 wells. As for the experimental part:
hES H9scp18 were seeded into Packard View 96-well plates (Perkin-Elmer) coated with 1:30 growth factor reduced MATRIGEL™ at a density of 14,000 cells/cm^2. The cells were grown for three to four days in MEF conditioned medium and then treated using a DE differentiation protocol. A subset of 40 wells was treated with a standard protocol (10 ng/ml Wnt3a, 100 ng/ml Activin A, and 0.5% FBS in DMEM:F12 for two days). A second subset of 40 wells was treated with the GSK3b inhibitor IX (100 nM; EMD Chemicals, La Jolla, Calif.) instead of Wnt3a. This was followed by treatment for both subsets for three days with 100 ng/ml Activin A and 2% FBS in DMEM:F12. At the end of culture, cells were fixed with 4% paraformaldehyde at room temperature for 20 minutes, washed three times with PBS, and stored in 100 ul PBS overnight. Cells were permeabilized with 0.5% Triton X-100 (Sigma-Aldrich), either at room temperature for 20 minutes or at 4° C. for five minutes, then washed three times with PBS and blocked with 4% chicken serum (Invitrogen-Gibco, Carlesbad, Calif.) in PBS for 30 minutes at room temperature. […]

Setting [2] is: T25 flask on 1:30 MATRIGEL, MEF conditioned media.

Turning to Collagenase, the “CELL NUMBER” value in test [1] is listed as 3.5 10^5. Besides, in the test with H1 passage 37 hES cells (setting [2]), the “density after four days in culture” value is on record as 138,000 cell/cm^2 and the “density after four days in culture, cells total” value worked out at 3.45 million cells total. In addition, the “growth and morphology after two passages” value with H1 passage 37 hES cells (additional 6 days on MATRIGEL after second passage) is “form large colonies of dense and homogeneous cells”. In the test on H1 passage 37 hES cells (first passage from MEF feeders, 10 min at 37° C.), the “lifting of cells from the dish” value was “did not lift cells”. Moreover, the “density of lifted cells” value in the test on H1 passage 37 hES cells (first passage from MEF feeders, hemocytometer count) is given as “not countable by hemocytometer”. Moreover, the “lifting of cells from plastic and MATRIGEL” value in the test with H1 passage 37 hES cells (second passage, 10-minute treatment at 37° C.) is “did not lift cells”.
On to TRYPSIN, for which the “time to release the cells” value in test [1] (36° C.) is “five”. Moreover, the “recovered cell counts / maintaining cell attachment/growth (in words)” value in test [1] (after three days culture, compared with collagenase) is reported as “significantly less effective at maintaining cell attachment/growth”. In addition, the “CELL NUMBER” value in test [1] is reported as 0.1 10^5.

B1: Wnt3a: Wnt3a (R&D Systems), 10 ng/ml in the definitive endoderm protocol (protein, UniProt P56704 19-352, looked up)
Protein Wnt-3a: SYPIWWSLAVGPQYSSLGSQPILCASIPGLVPKQLRFCRNYVEIMPSVAEGIKIGIQECQHQFRGRRWNCTTVHDSLAIFGPVLDKATRESAFVHAIASAGVAFAVTRSCAEGTAAICGCSSRHQGSPGKGWKWGGCSEDIEFGGMVSREFADARENRPDARSAMNRHNNEAGRQAIASHMHLKCKCHGLSGSCEVKTCWWSQPDFRAIGDFLKDKYDSASEMVVEKHRESRGWVETLRPRYTYFKVPTERDLVYYEASPNFCEPNPETGSFGTRDRTCNVSSHGIDGCDLLCCGRGHNARAERRREKCRCVFHWCCYVSCQECTRVYDVHTCK
B1: in the test with hES H9scp18, the “number of cell nuclei per well” value is listed as “highest number of cell nuclei per well with little variability between wells”.

Source of the values: patent US10316293B2, “Methods for producing single pluripotent stem cells and differentiation thereof” (LifeScan, Inc., priority 2007, dated 2019).
